The values that follow come from patent US5405843A, “Quinoline derivatives” (Mitsui Toatsu Chemicals, Incorporated, priority 1988, dated 1995).

For experiment [1], the system named is Adriamycin resistant strain 2780 AD cells of human ovarian cancer A2780 cells. The experiment can be described thus: Potentiating effect on incorporation of 3H-vincristine into adriamycin-resistant cancer cells. In kind it is cell-based. The following applies: Homo sapiens, 2780AD, 2 h, 20 nM 3H-vincristine, control = 100, read-out: 3H-vincristine accumulation; for activity at 1 µg/mL: compound 1 μg/ml; for activity at 10 µg/mL: compound 10 μg/ml. The method, then:
Potentiating Effect of the Compounds on Incorporation of Anticancer Drugs into Drug-resistant Cancer Cells
Adriamycin resistant strain 2780 AD cells of human ovarian cancer A2780 cells (A. M. Rogan et al., Science 224, 994-996, 1984) were suspended at a concentration of 1×10^6 /ml in RPMI-1640 medium supplemented with 5% fetal calf serum, and 1 ml of the cancer cell suspension was dispensed into each well of a multi-well culture plate (24 wells, […] in diameter) and then incubated at 37° C. in an atmosphere of 5% CO2. After 24 hours incubation, the medium in each well was replaced by 0.5 ml of RPMI-1640 medium supplemented containing 20 nM ^3 H-vincristine (1×10^4 dpm/pmol), 5% fetal calf serum and 10 mM Hepes buffer. Five microliters of a solution of the compound to be tested, which had been dissolved in DMSO and diluted with […] (at a concentration of 1.0 microgram/ml or 10.0 micrograms/ml), was added to each well and the incubation was continued at 37° C. in 5% CO2 for 2 hours. The resultant cells were washed in cold saline-phosphate buffer. In each well was added 0.5 ml of 0.2N NaOH, and the resulting cell suspension in each well was independently transferred into a vial and then heated in a water bath at 56° C. for 30-60 minutes to dissolve the cells. After adding 4 ml of acid aquazole 2, the amount of ^3 H-vincristine incorporated into the cells was determined by a fluid scintillation counter.

Experiment [2] deals with Vincristine-resistant strain P388/VCR cells of mouse leukemia P388 cells. In words: Potentiating effect on vincristine in mice having vincristine-resistant mouse leukemia (survival). It is filed as in vivo, mouse (female CDFI mice). The conditions noted are these: peritoneal, once a day for 5 days; for T/C (rate of life prolongation): control = 100.
Where [3] appears, read: compound 30 mg/kg + vincristine 100 ug/kg.
[4] abbreviates: compound 10 mg/kg + vincristine 100 ug/kg.

The structures appear in SMILES notation.

As for `OC(COc1cccc2ncccc12)CN1CCN(CC(c2ccccc2)c2ccccc2)CC1` (centres unmarked) [Example 17, 5-[3-(4-(2,2-Diphenylethyl)piperazine-1-yl)-2-hydroxypropoxy]quinoline], in experiment [1], the activity at 1 µg/mL stood at 730%. In addition, in experiment [2] (setting [3]), the Average surviving period is listed as 11.8 ± 1.1 days and the “T/C (rate of life prolongation)” value is listed as 115%.
With `OC(COc1cccc2nc(Cl)ccc12)CN1CCN(C2c3ccccc3CCc3ccccc32)CC1` (centres unmarked) [Example 18, 5-[3-(4-(5-Dibenzosuberanyl)piperazine-1-yl)-2-hydroxypropoxy]-2-chloroquinoline], in experiment [1], the activity at 1 µg/mL worked out at 743% and the activity at 10 µg/mL stood at 761%. Besides, in experiment [2] (setting [3]), the Average surviving period is reported as 13.8 ± 0.4 days and the “T/C (rate of life prolongation)” value was determined as 131%.
For `OC(COc1cccc2ncccc12)CN1CCN(C2c3ccccc3C=Cc3ccccc32)CC1` (centres unmarked) [Example 20, 5-[3-(4-(5-Dibenzosuberenyl)piperazine-1-yl)-2-hydroxypropoxy]quinoline], in experiment [1], the activity at 1 µg/mL amounted to 794%. Further, in experiment [2] (setting [3]), the Average surviving period is reported as 13.7 ± 1.0 days and the “T/C (rate of life prolongation)” value stood at 133%.
Consider `Cc1cc(C)c2c(OCC(O)CN3CCN(C4c5ccccc5COc5ccccc54)CC3)cccc2n1` (centres unmarked) [Example 21, 2,4-Dimethyl-5-[3-(4-(6,11-dihydrodibenzo[b,e]oxepine-11-yl)piperazine-1-yl)-2-hydroxypropoxy]quinoline], for which, in experiment [1], the activity at 1 µg/mL came to 727% and the activity at 10 µg/mL was found to be 745%. Further, in experiment [2] (setting [3]), the Average surviving period was determined as 12.5 ± 0.6 days and the “T/C (rate of life prolongation)” value was found to be 121%.
On to `Cc1cc(C)c2c(OCC(O)CN3CCN(C4c5ccccc5CCc5ccccc54)CC3)cccc2n1` (centres unmarked) [Example 22, 5-[3-(4-(Dibenzosuberane-5-yl)piperazine-1-yl)-2-hydroxypropoxy]-2,4-dimethylquinoline], for which, in experiment [1], the activity at 1 µg/mL amounted to 723% and the activity at 10 µg/mL worked out at 743%. In experiment [2] (setting [3]), the Average surviving period is 13.9 ± 0.4 days and the “T/C (rate of life prolongation)” value stood at 132%.
`c1ccc(C(c2ccccc2)N2CCN(CCCOc3cccc4ncccc34)CC2)cc1` [Example 32, 5-[3-(4-Diphenylmethylpiperazine-1-yl)propoxy]quinoline]: the activity at 1 µg/mL in experiment [1] was found to be 816%. For the same compound, in experiment [2] (setting [3]), the Average surviving period turned out to be 11.3 ± 0.4 days and the “T/C (rate of life prolongation)” value amounted to 110%.
In the case of `c1ccc(C(c2ccccc2)N2CCN(CCOc3cccc4ncccc34)CC2)cc1` [Example 34, 5-[2-(4-Diphenylmethylpiperazine-1-yl)ethoxy]quinoline], the activity at 1 µg/mL in experiment [1] is 785%. Also, in experiment [2] (setting [3]), the Average surviving period was 10.8 ± 0.8 days and the “T/C (rate of life prolongation)” value is 98%.
Consider `O=C(CCN1CCN(C(c2ccccc2)c2ccccc2)CC1)Nc1cccc2ncccc12` [Example 35, 5-[3-(4-Diphenylmethypiperazine-1-yl)propionamido]-quinoline], for which, in experiment [1], the activity at 1 µg/mL was 654% and the activity at 10 µg/mL was found to be 627%. In addition, in experiment [2] (setting [3]), the Average surviving period is listed as 11.9 ± 0.7 days and the “T/C (rate of life prolongation)” value amounted to 116%.
Taken in the same sequence, the figures for `O=C(CCN1CCN(C2c3ccccc3CCc3ccccc32)CC1)Nc1cccc2ncccc12` [Example 36] were 821%, 716%, 12.6 ± 0.9 days and 122%.
In the case of `OC(COc1cccc2nc(Cl)ccc12)CN1CCN(C(c2ccccc2)c2ccccc2)CC1` (centres unmarked) [Example 41, 2-Chloro-5-[3-(4-diphenylmethylpiperazine-1-yl)-2-hydroxypropoxy]quinoline], the activity at 1 µg/mL in experiment [1] was found to be 584%. In addition, in experiment [2] (setting [3]), the Average surviving period worked out at 13.2 ± 1.8 days and the “T/C (rate of life prolongation)” value is 120%.
On the same counts, the results for `COc1ccc2c(OCC(O)CN3CCN(C(c4ccccc4)c4ccccc4)CC3)cccc2n1` (centres unmarked) [Example 42, 5-[3-(4-Diphenylmethylpiperazine-1-yl)-2-hydroxypropoxy]-2-methoxyquinoline] are 624%, 13.9 ± 2.4 days and 126%.
In the case of `OC(COc1cccc2cnccc12)CN1CCN(C2c3ccccc3CCc3ccccc32)CC1` (centres unmarked) [Example 44, 5-[3-(4-(Dibenzosuberane-5-yl)piperazine-1-yl)-2-hydroxypropoxy]isoquinoline], in experiment [1], the activity at 1 µg/mL was found to be 636% and the activity at 10 µg/mL was 934%. Besides, in experiment [2] (setting [4]), the Average surviving period came to 12.5 ± 0.0 days and the “T/C (rate of life prolongation)” value was determined as 112%. Moreover, in experiment [2] (setting [3]), the Average surviving period was 13.8 ± 1.0 days and the “T/C (rate of life prolongation)” value came out at 123%.
Consider `Cc1cc(C)c2c(OCC(O)CN3CCN(C(=O)C(c4ccccc4)c4ccccc4)CC3)cccc2n1` (stereo not drawn) [Example 53, 2,4-Dimethyl-5-[3-((α,α-diphenylacetyl)piperazine-1-yl)-2-hydroxypropoxy]quinoline], for which, in experiment [1], the activity at 1 µg/mL came out at 658% and the activity at 10 µg/mL came out at 794%. Also, in experiment [2] (setting [3]), the Average surviving period was found to be 11.8 ± 0.8 days and the “T/C (rate of life prolongation)” value is 111%.
On to `Cc1cc(C(F)(F)F)nc2cccc(OCC(O)CN3CCN(C(=O)C(c4ccccc4)c4ccccc4)CC3)c12` (stereo not drawn) [Example 55, 2-Trifluoromethyl-4-methyl-5-[3-(4-(α,α-diphenylacetyl)piperazine-1-yl)-2-hydroxypropoxy]quinoline], for which, in experiment [1], the activity at 1 µg/mL stood at 452% and the activity at 10 µg/mL was found to be 756%. In experiment [2] (setting [3]), the Average surviving period was 12.7 ± 0.3 days and the “T/C (rate of life prolongation)” value is given as 120%.
In the case of `OC(COc1cccc2ncccc12)CN1CCN(C(c2ccc(F)cc2)c2ccc(F)cc2)CC1` (centres unmarked) [Example 57, 5-(3-[4-(Bis(4-fluorophenyl)methyl)piperazine-1-yl]-2-hydroxypropoxy)quinoline], in experiment [1], the activity at 1 µg/mL was found to be 572% and the activity at 10 µg/mL was 732%. In addition, in experiment [2] (setting [3]), the Average surviving period is 13.1 ± 0.4 days and the “T/C (rate of life prolongation)” value is 124%.
Taken in the same sequence, the figures for `OC(COc1cccc2ncccc12)CN1CCN(C(c2ccccc2)c2ccc(Cl)cc2)CC1` (centres unmarked) [Example 58, 5-(3-[4-((4-Chlorophenyl)-phenylmethyl)piperazine-1-yl]-2-hydroxypropoxy)quinoline] were 619%, 843%, 13.8 ± 1.8 days and 130%.
Take `COc1ccc(C(c2ccc(OC)cc2)N2CCN(CC(O)COc3cccc4ncccc34)CC2)cc1` (centres unmarked) [Example 59, 5-(3-[4-(Bis-(4-methoxyphenyl)methyl)piperazine-1-yl] -2-hydroxypropoxy)quinoline]: in experiment [1], the activity at 1 µg/mL was determined as 561% and the activity at 10 µg/mL turned out to be 685%. In addition, in experiment [2] (setting [3]), the Average surviving period is recorded as 13.2 ± 1.2 days and the “T/C (rate of life prolongation)” value was 125%.
On the same counts, the results for `O=C(N1CCN(CC(O)COc2cccc3ncccc23)CC1)N1c2ccccc2CCc2ccccc21` (centres unmarked) [Example 60, 5-[3-(4-(Iminodibenzyl-5-carbonyl)piperazine-1-yl)-2-hydroxypropoxy]quinoline] are 643%, 760%, 12.4 ± 0.7 days and 117%.
